Values of other authors in US4987122A, “Peptide compounds and medical method of use thereof” (Nycomed AS, priority 1986, dated 1991).
[ ]: non-standard residue; d: D form. pGlu = O=C1CC[C@@H](C(=O)O)N1

Columns and labels:
[1] = subjected to freezing and thawing; reversed by treatment with mercaptoethanol
granulopoiesis = settings: as reported in the European patent application

Row | Substance | activity after freezing and thawing [1] | activity of the synthetic compound (granulopoiesis)
1 | pyroGlu-Glu-Asp-Cys-LysOH ([pGlu]EDCK-OH; SMILES NCCCC[C@H](NC(=O)[C@H](CS)NC(=O)[C@H](CC(=O)O)NC(=O)[C@H](CCC(=O)O)NC(=O)[C@@H]1CCC(=O)N1)C(=O)O) | stimulatory activity | –
2 | pyroGlu-Asp-Asp-Cys-LysOH ([pGlu]DDCK-OH; SMILES NCCCC[C@H](NC(=O)[C@H](CS)NC(=O)[C@H](CC(=O)O)NC(=O)[C@H](CC(=O)O)NC(=O)[C@@H]1CCC(=O)N1)C(=O)O) [synthetic compound with the structure postulated for the natural granulopoiesis factor] | – | inactive
